Test results published in BindingDB's records for PubMed 34138567 (National Clinical Research Center For Geriatrics, 2021).

Tests used:
[1] = Inhibition of PI3Kdelta in conA-stimulated primary human T cell proliferation incubated for 1 hr by CellTiter-glo luminescent assay
[2] = Inhibition of PI3Kdelta in anti-FceRI-stimulated human Basophil cells degranulation incubated for 30 mins

IC50 [1]: 21 nM
IC50 [2]: 8.2 nM
SMILES: C[C@H]1CC[C@@H](c2nc3cccc(Cl)c3c(=O)n2-c2cccc(F)c2)N1c1ncnc2[nH]cnc12
